Reference: ChEMBL document CHEMBL1127699, “Inhibitors of acyl-CoA:cholesterol acyltransferase. 1. Synthesis and hypocholesterolemic activity of dibenz[b,e]oxepin-11-carboxanilides” (J Med Chem, 1994)

What was measured:
[1] = biological target: T1, Acyl-CoA:cholesterol acyltransferase (Oryctolagus cuniculus, UniProt Q95214); experiment: In vitro inhibitory activity against acyl coenzyme A:cholesterol acyltransferase in liver microsomes isolated from cholesterol-fed rabbits; parameters: species or system Microsome
T1 sequence (Q95214 whole entry): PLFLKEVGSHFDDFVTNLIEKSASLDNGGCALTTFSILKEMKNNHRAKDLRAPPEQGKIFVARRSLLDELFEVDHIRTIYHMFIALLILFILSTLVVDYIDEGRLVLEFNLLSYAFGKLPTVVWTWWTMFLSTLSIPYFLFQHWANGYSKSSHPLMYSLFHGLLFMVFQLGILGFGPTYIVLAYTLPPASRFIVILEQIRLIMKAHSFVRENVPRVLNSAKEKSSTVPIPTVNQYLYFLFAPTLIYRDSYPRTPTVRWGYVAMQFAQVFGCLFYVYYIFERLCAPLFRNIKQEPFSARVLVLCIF

Cricetinae gen. sp. [2] = experiment: In vivo hypocholesterolemic activity in golden hamsters, fed with a diet containing 2% cholesterol at a dose of 100 mg/kg; type: functional, Mesocricetus auratus
Mesocricetus auratus = experiment: In vivo hypocholesterolemic activity in golden hamsters, fed with a diet containing 2% cholesterol at a dose of 30 mg/kg, po
[3] = biological target: T2, Acyl-CoA:cholesterol acyltransferase (Oryctolagus cuniculus) (UniProt Q95214); experiment: In vitro inhibitory activity against Acyl coenzyme A:cholesterol acyltransferase in liver microsomes isolated from cholesterol-fed rabbits; conditions: Microsome, concentration not given here
T2 sequence (whole entry): T1 sequence (Q95214 whole entry)

Cricetinae gen. sp. [4] = experiment: (§1) In vivo hypocholesterolemic activity in golden hamsters, fed with a diet containing 2% cholesterol at a dose of 30 mg/kg, po; type: functional, Mesocricetus auratus
Cricetinae gen. sp. [5] = experiment: (§2) In vivo hypocholesterolemic activity in golden hamsters, fed with a diet containing 2% cholesterol at a dose of 10 mg/kg, po; type: functional, Mesocricetus auratus
[6] = biological target: T2, Acyl-CoA:cholesterol acyltransferase (Oryctolagus cuniculus); experiment: In vitro inhibitory activity against Acyl coenzyme A:cholesterol acyltransferase in liver microsomes isolated from cholesterol-fed rabbits at 1 uM; conditions: Microsome
Cricetinae gen. sp. [7] = experiment: as §1; type: functional, Cricetulus griseus
Cricetinae gen. sp. [8] = experiment: as §2; type: functional
Rattus norvegicus [9] = experiment: Effect on liver cholesterol levels in male Dawley rats at a dose of 3 mg/kg/day, po (p<=0.01); type: functional
Rattus norvegicus [10] = experiment: Effect on liver cholesterol levels in male Dawley rats at a dose of 30 mg/kg/day, po (p<=0.01); type: functional
Rattus norvegicus [11] = experiment: Effect on serum cholesterol levels in male Dawley rats at a dose of 1 mg/kg/day, po (p<=0.05); type: functional
Rattus norvegicus [12] = experiment: Effect on serum cholesterol levels in male Dawley rats at a dose of 10 mg/kg/day, po (p<=0.01); type: functional
Rattus norvegicus [13] = experiment: Effect on serum cholesterol levels in male Dawley rats at a dose of 3 mg/kg/day, po (p<=0.01); type: functional
Rattus norvegicus [14] = experiment: Effect on serum cholesterol levels in male Dawley rats at a dose of 30 mg/kg/day, po (p<=0.01); type: functional
Rattus norvegicus [15] = experiment: Effect on liver cholesterol levels in male Dawley rats at a dose of 1 mg/kg/day, po (p<=0.01); type: functional
Rattus norvegicus [16] = experiment: Effect on liver cholesterol levels in male Dawley rats at a dose of 10 mg/kg/day, po (p<=0.01); type: functional

Compound	IC50 [1] [nM]	Reduction (Cricetinae gen. sp. [2]) [%]	other results
COc1cc(OC)c(NC(=O)C2c3ccccc3COc3ccc(C)cc32)c(OC)c1 (configuration not stated)	580	–	–
Cc1ccc2c(c1)C(C(=O)Nc1c(C(C)C)cccc1C(C)C)c1ccccc1CO2 (configuration not stated)	50	106	Reduction (Mesocricetus auratus): 70%
Cc1ccc2c(c1)C(C(=O)Nc1ccccc1)c1ccccc1CO2 (configuration not stated)	–	10	inhibition [3]: 15%
COc1ccc2c(c1)C(C(=O)Nc1c(C(C)C)cccc1C(C)C)c1ccccc1CO2 (configuration not stated)	140	–	Reduction (Mesocricetus auratus): 22%
CC(C)c1cccc(C(C)C)c1NC(=O)C1c2ccccc2CSc2ccc(Br)cc21 (configuration not stated)	150	–	Reduction (Cricetinae gen. sp. [4]): 67%
CC(C)c1cccc(C(C)C)c1NC(=O)C1c2ccccc2CCc2ccccc21	40	–	Reduction (Cricetinae gen. sp. [5]): 3%; Reduction (Cricetinae gen. sp. [4]): 89%
CCc1cccc(CC)c1NC(=O)C1c2ccccc2COc2ccc(Br)cc21 (configuration not stated)	250	64	–
CC(C)c1cccc(C(C)C)c1NC(=O)C1c2ccccc2COc2cc(Br)ccc21 (configuration not stated)	180	-2	–
CCc1cccc(CC)c1NC(=O)C1c2ccccc2COc2ccc(C(C)C)cc21 (configuration not stated)	500	25	–
CC(C)c1cccc(C(C)C)c1NC(=O)C1c2ccccc2OCc2ncccc21 (configuration not stated)	640	–	–
CC(C)c1cccc(C(C)C)c1NC(=O)C1c2cc(Br)ccc2OCc2ncccc21 (configuration not stated)	78	–	Reduction (Mesocricetus auratus): 47%
Cc1ccc2c(c1)C(/C(S)=N/c1c(C(C)C)cccc1C(C)C)c1ccccc1CO2 (configuration not stated)	–	–	inhibition [6]: 15%
CC(C)c1cccc(C(C)C)c1NC(=O)C1c2ccccc2C=Cc2ccccc21	25	–	Reduction (Cricetinae gen. sp. [4]): 73%
CC(C)c1cccc(C(C)C)c1NC(=O)C1c2ccccc2C(=O)N(C)c2ccc(Br)cc21 (configuration not stated)	240	–	–
Cc1cc2c(cc1C)C(C(=O)Nc1c(C(C)C)cccc1C(C)C)c1ccccc1CO2 (configuration not stated)	64	–	Reduction (Mesocricetus auratus): 27%
Cc1cccc(C)c1NC(=O)C1c2ccccc2COc2ccc(C(C)C)cc21 (configuration not stated)	360	–	–
CC(C)c1cccc(C(C)C)c1NC(=O)C1c2ccccc2COc2ccc(C#N)cc21 (configuration not stated)	490	–	eduction (Cricetinae gen. sp. [7]): -6%
CC(C)c1cccc(C(C)C)c1NC(=O)C1c2ccccc2CCc2ccc(Br)cc21 (configuration not stated)	39	–	Reduction (Cricetinae gen. sp. [5]): 42%
CC(C)c1cccc(C(C)C)c1NC(=O)C1c2ccccc2COc2ccc(C(=O)N(C)C)cc21 (configuration not stated)	400	–	–
Cc1cc(Br)c2c(c1)C(C(=O)Nc1c(C(C)C)cccc1C(C)C)c1ccccc1CO2 (configuration not stated)	100	–	Reduction (Mesocricetus auratus): 67%
CC(C)c1cccc(C(C)C)c1NC(=O)C1c2ccccc2COc2ccc(F)cc21 (configuration not stated)	210	53	–
Cc1cc(C)c(NC(=O)C2c3ccccc3COc3ccc(C)cc32)c(C)c1 (configuration not stated)	110	–	–
CSc1ccc2c(c1)C(C(=O)Nc1c(C(C)C)cccc1C(C)C)c1ccccc1CO2 (configuration not stated)	7	–	Reduction (Mesocricetus auratus): 5%
CCCCCCCN(Cc1ccc(CC(C)(C)C)cc1)C(=O)Nc1ccc(F)cc1F [CL-277082]	–	–	Reduction (Cricetinae gen. sp. [5]): 35%; Reduction (Cricetinae gen. sp. [4]): 71%
O=C(Nc1ccc(F)cc1F)C1c2ccccc2COc2ccc(Br)cc21 (configuration not stated)	580	–	–
CC(C)c1cccc(C(C)C)c1/N=C(\S)C1c2ccccc2COc2ccc(Br)cc21 (configuration not stated)	–	–	inhibition [3]: 33%

Compound	IC50 [1] [nM]	Reduction (Cricetinae gen. sp. [2]) [%]	other results
Cc1ccc2c(c1)C(C(=O)Nc1c(C)cccc1Cl)c1ccccc1CO2 (configuration not stated)	260	–	–
CC(C)c1cccc(C(C)C)c1NC(=O)C1c2ccccc2COc2ccc(I)cc21 (configuration not stated)	35	–	Reduction (Mesocricetus auratus): 73%
CC(C)c1cccc(C(C)C)c1NC(=O)C1c2ccccc2COc2ccc(Br)cc21 (configuration not stated)	23	143	Reduction (Cricetinae gen. sp. [8]): 101%; Cholesterol level (Rattus norvegicus [9]): 15 mg/g; Cholesterol level (Rattus norvegicus [10]): 6.3 mg/g; Cholesterol level (Rattus norvegicus [11]): 214 mg/dL; Cholesterol level (Rattus norvegicus [12]): 114 mg/dL; Cholesterol level (Rattus norvegicus [13]): 167 mg/dL; Cholesterol level (Rattus norvegicus [14]): 108 mg/dL; Cholesterol level (Rattus norvegicus [15]): 19.2 mg/g; Cholesterol level (Rattus norvegicus [16]): 10.4 mg/g; Reduction (Mesocricetus auratus): 114%
CC(C)c1cccc(C(C)C)c1NC(=O)C1c2ccccc2COc2ccc(Cl)cc21 (configuration not stated)	150	97	–
CC(C)c1cccc(C(C)C)c1NC(=O)C1c2ccccc2COc2ccc(C(=O)O)cc21 (configuration not stated)	–	–	inhibition [3]: 1%
CC(C)c1cccc(C(C)C)c1NC(=O)C1c2ccccc2COc2ccc([N+](=O)[O-])cc21 (configuration not stated)	240	–	–
CCc1ccc2c(c1)C(C(=O)Nc1c(C(C)C)cccc1C(C)C)c1ccccc1CO2 (configuration not stated)	130	51	–
CC(C)c1cccc(C(C)C)c1NC(=O)C1c2ccccc2COc2ccccc21 (configuration not stated)	94	2	–
O=C(Nc1c(Cl)cccc1Cl)C1c2ccccc2COc2ccc(Br)cc21 (configuration not stated)	74	–	Reduction (Mesocricetus auratus): 0%
Cc1ccc2c(c1)C(C(=O)Nc1c(Br)cccc1Br)c1ccccc1CO2 (configuration not stated)	190	6	–
COC(=O)c1ccc2c(c1)C(C(=O)Nc1c(C(C)C)cccc1C(C)C)c1ccccc1CO2 (configuration not stated)	180	89	–
CC(C)c1cccc(C(C)C)c1NC(=O)C1c2ccccc2COc2ccc(CO)cc21 (configuration not stated)	580	–	–
Cc1ccc2c(c1)C(C(=O)Nc1ccccc1C(C)C)c1ccccc1CO2 (configuration not stated)	730	18	–
CC(C)c1cccc(C(C)C)c1NC(=O)C1c2ccccc2COc2ccc(C(F)(F)F)cc21 (configuration not stated)	160	–	Reduction (Mesocricetus auratus): 63%
Cc1cc(C(=O)O)c2c(c1)C(C(=O)Nc1c(C(C)C)cccc1C(C)C)c1ccccc1CO2 (configuration not stated)	–	–	inhibition [3]: 28%
O=C(Nc1c(Cl)cccc1Cl)C1c2ccccc2COc2cc(Br)ccc21 (configuration not stated)	940	–	–
COC(=O)c1cc(C)cc2c1OCc1ccccc1C2C(=O)Nc1c(C(C)C)cccc1C(C)C (configuration not stated)	27	–	Reduction (Cricetinae gen. sp. [8]): 28%; Reduction (Mesocricetus auratus): 84%
CC(C)c1cccc(C(C)C)c1NC(=O)C1c2cc(Br)ccc2COc2ccc(Br)cc21 (configuration not stated)	58	–	Reduction (Mesocricetus auratus): 40%
Cc1ccc2c(c1)C(C(=O)Nc1c(Cl)cccc1Cl)c1ccccc1CO2 (configuration not stated)	190	25	–
CC(C)c1cccc(C(C)C)c1NC(=O)C1c2cc(Br)ccc2COc2ccccc21 (configuration not stated)	190	–	Reduction (Mesocricetus auratus): 8%
CC(C)(C)c1ccc2c(c1)C(C(=O)Nc1c(Cl)cccc1Cl)c1ccccc1CO2 (configuration not stated)	420	–	–
Cc1cccc(C)c1NC(=O)C1c2ccccc2COc2ccc(C(C)(C)C)cc21 (configuration not stated)	500	-42	–
Cc1ccc2c(c1)C(C(=O)Nc1c(C)cccc1C)c1ccccc1CO2 (configuration not stated)	350	25	–
Cc1ccc2c(c1)C(C(=O)Nc1c(C(C)C)cccc1C(C)C)c1cc(Br)ccc1CO2 (configuration not stated)	120	–	Reduction (Mesocricetus auratus): 17%
Cc1ccc2c(c1)C(C(=O)Nc1c(C(C)C)cccc1C(C)C)c1ccccc1CC2 (configuration not stated)	55	–	Reduction (Cricetinae gen. sp. [5]): -1%; Reduction (Cricetinae gen. sp. [4]): 93%
CCc1cccc(CC)c1NC(=O)C1c2ccccc2COc2ccc(C)cc21 (configuration not stated)	270	49	–
